US11013696B2, “Lipids and lipid compositions for the delivery of active agents” (Novartis AG, priority 2013, dated 2021)

assay: Percent encapsulation of mRNA in lipid nanoparticles (Quant-iT Ribogreen); assay type: physicochemical; conditions: Table 2; leptin mRNA in LNP with the cationic lipid
Procedure: All equipment and disposable supplies are certified free of RNase activity by the manufacturer or rendered RNase free by use of the RNaseZap reagent (LifeTechnologies). mRNA is encapsulated at a cationic lipid amine to mRNA phosphate (N:P) molar ratio of 4:1. Lipids (cationic lipid, DSPC, cholesterol and lipidated PEG or stealth lipid) are dissolved in ethanol. The molar ratios are 40:10:38:2, respectively. The mixture is sonicated briefly, then gently agitated for 5 minutes and then maintained at 37° C. until use. mRNA is exchanged into citrate buffer pH 5.8-6.0 by use of Amicon Ultra-15 centrifugal concentrators, and the final concentration is adjusted to 0.5 mg/ml and held at 37° C. until use. An equal volume of lipids in ethanol, mRNA in citrate buffer, and citrate buffer alone are drawn into disposable syringes. Tubing leading from syringes containing lipids and mRNA are attached to the T junction, and tubing leading from the syringe containing citrate buffer alone is paired with the tubing exiting the T-junction over a collection vessel containing a stir bar on an active stir plate. Syringes are placed in a syringe pump set to expel contents at a flow rate of 1 ml per minute.
The pump is activated, and the collected mRNA in lipid nanoparticles is transferred to SnakeSkin dialysis tubing (10,000 MWCO, Thermo Scientific). Material is dialyzed against RNAse- and pyrogen-free 1× phosphate buffered saline overnight at 4° C.
Percent encapsulation of mRNA in lipid nanoparticles is determined using the Quant-iT Ribogreen RNA Assay kit (Life Technologies). The LNP-mRNA suspension is assayed in buffer (mRNA outside the particle), and buffer plus Triton X-100 detergent (total mRNA). The difference calculated is the mRNA inside the particle. Prepare a 1000 ng/mL stock from the RNA provided in the kit and use this to generate a standard curve (0 ng/ml, 15.63-1000 ng/ml) in TE and TE+0.75% Triton X-100. Prepare LNP-mRNA samples in TE buffer and TE buffer +0.75% Triton X-100 with appropriate dilution so that reading is in the range of standard curve (400-2,000 fold). In a 384-well plate (Costar non-treated #3573) add 0.04 ml of standard (in duplicate) or sample (in triplicate) per well. Dilute Ribogreen reagent 240-fold in TE buffer and add 0.06 ml per well. Mix contents of wells and measure fluorescence (excitation=480 nm, emission=520 nm). Subtract background values (no RNA) from standard and test sample values and determine the concentrations of RNA in the samples using the standard curves. Determine the percent encapsulation of the sample by dividing the difference in concentrations between sample+triton and sample in buffer alone by the sample+triton concentration.

Row | % encapsulation mRNA Leptin [%] | Compound
1 | 93.0 | CCCCCCCC(=O)OCCCCCCCCCCC(CCOC(=O)CCCCCC(CCCCCC)CCCCCC)OC(=O)OCCCN(C)C (stereo not shown) [Example 64, 3-(((3-(dimethylamino)propoxy)carbonyl)oxy)-13-(octanoyloxy)tridecyl 7-hexyltridecanoate]
2 | 81.9 | CC/C=C\C/C=C\C/C=C\CCCCCCCC(=O)OCC(COC(=O)CCCCCCC/C=C\C/C=C\C/C=C\CC)OC(=O)CCC(CCCCCCCCCCCC)OC(=O)OCCCN(C)C (stereo not shown) [Example 82, (9Z,9′Z,12Z,12′Z,15Z,15′Z)-2-((4-(((3-(dimethylamino)propoxy)carbonyl)oxy)hexadecanoyl)oxy)propane-1,3-diyl bis(octadeca-9,12,15-trienoate)]
3 | 48.9 | CCCCCCCC/C=C\CCCCCCCC(=O)OCC(COC(=O)CCCCCCC/C=C\CCCCCCCC)OC(=O)CCC(CCCCCCCCCCCC)OC(=O)OCCCN(C)C (stereo not shown) [Example 83, (Z)-2-((4-(((3-(dimethylamino)propoxy)carbonyl)oxy)hexadecanoyl)oxy)propane-1,3-diyl dioleate]
4 | 68.5 | CCCCCCCCCCCCCC(=O)OCC(COC(=O)CCCCCCCCCCCCC)OC(=O)CCC(CCCCCCCCCCCC)OC(=O)OCCCN(C)CC (stereo not shown) [Example 86, 2-((4-(((3-(ethyl(methyl)amino)propoxy)carbonyl)oxy)hexadecanoyl)oxy)propane-1,3-diyl ditetradecanoate]
5 | 87.0 | CCCCCCCCCCCCC(CCC(=O)OC(COC(=O)CCCCCCCCCCC)COC(=O)CCCCCCCCCCC)OC(=O)OCCCN(C)CC (stereo not shown) [Example 89, 2-((4-(((3-(ethyl(methyl)amino)propoxy)carbonyl)oxy)hexadecanoyl)oxy)propane-1,3-diyl didodecanoate]
6 | 82.0 | CCCCCCCCCCCCC(CCC(=O)OC(COC(=O)CCCCCCC)COC(=O)CCCCCCC)OC(=O)OCCCN(C)CC (stereo not shown) [Example 93, 2-((4-(((3-(ethyl(methyl)amino)propoxy)carbonyl)oxy)hexadecanoyl)oxy)propane-1,3-diyl dioctanoate]
7 | 91.5 | CCCCCCCCCCCCC(OC(=O)OCCCN(CC)CC)C(=O)OC(COC(=O)CCCCCCC)COC(=O)CCCCCCC (stereo not shown) [Example 100, 2-((2-(((3-(diethylamino)propoxy)carbonyl)oxy)tetradecanoyl)oxy)propane-1,3-diyl dioctanoate)]
8 | 96.3 | CCCCCCCCCCCCC(CCOC(=O)CCC(OCCCCCCCC)OCCCCCCCC)OC(=O)OCCCN(C)C (stereo not shown) [Example 106, 3-(((3-(dimethylamino)propoxy)carbonyl)oxy)pentadecyl 4,4-bis(octyloxy)butanoate]
9 | 94.5 | CCCCCCCCCCCCC(CCOC(=O)CCCCC(OCCCCCCCC)OCCCCCCCC)OC(=O)OCCCN1CCCCC1 (stereo not shown) [Example 107, 3-(((3-(piperidin-1-yl)propoxy)carbonyl)oxy)pentadecyl 6,6-bis(octyloxy)hexanoate]
10 | 94.6 | CCCCCCCCCCCCC(CCOC(=O)CCCCC(OCCCCCCCC)OCCCCCCCC)OC(=O)OCCCN1CCNCC1 (stereo not shown) [Example 108, 3-(((3-(piperazin-1-yl)propoxy)carbonyl)oxy)pentadecyl 6,6-bis(octyloxy)hexanoate]
11 | 59.3 | CCCCCCCCCCCCC(CCOC(=O)CCCCC(OCCCCCCCC)OCCCCCCCC)OC(=O)OCCCN1CCN(C)CC1 (stereo not shown) [Example 110, 3-(((3-(4-methylpiperazin-1-yl)propoxy)carbonyl)oxy)pentadecyl 6,6-bis(octyloxy)hexanoate]
12 | 74.7 | CCCCCCCCCCCCC(CCOC(=O)CCCCC(OCCCCCCCC)OCCCCCCCC)OC(=O)OCC1CCN(C)CC1 (stereo not shown) [Example 111, 3-((((1-methylpiperidin-4-yl)methoxy)carbonyl)oxy)pentadecyl 6,6-bis(octyloxy)hexanoate]
13 | 32.9 | CCCCCCCCCCCCC(CCOC(=O)CCCCC(OCCCCCCCC)OCCCCCCCC)OC(=O)OCCCN1CCOCC1 (stereo not shown) [Example 112, 3-(((3-morpholinopropoxy)carbonyl)oxy) pentadecyl 6,6-bis(octyloxy) hexanoate]
14 | 37.5 | CCCCCCCCCCCCC(CCOC(=O)CCCCC(OCCCCCCCC)OCCCCCCCC)OC(=O)OCCN(CC)CC (stereo not shown) [Example 113, 3-(((2-(diethylamino)ethoxy)carbonyl)oxy)pentadecyl 6,6-bis(octyloxy)hexanoate]
15 | 98.4 | CCCCCCCCCCCCC(CCOC(=O)CCCCC(OCC(CCC)CCC)OCC(CCC)CCC)OC(=O)OCCCN(CC)CC (stereo not shown) [Example 114, 3-(((3-(diethylamino)propoxy)carbonyl)oxy)pentadecyl 6,6-bis((2-propylpentyl)oxy)hexanoate]
16 | 93.3 | CCCCCCCCCCCCC(CCOC(=O)CCCCC(OCCC(CC)CC)OCCC(CC)CC)OC(=O)OCCCN(C)C (stereo not shown) [Example 116, 3-(((3-(dimethylamino)propoxy)carbonyl)oxy)pentadecyl 6,6-bis((3-ethylpentyl)oxy)hexanoate]
17 | 5.0 | CCCCCCCCCCCCC(CCOC(=O)CCCCC(OCCCCCCCC)OCCCCCCCC)OC(=O)[C@H]1CCCN1C (stereo partly drawn) [Example 117, (2R)-1-((6,6-bis(octyloxy)hexanoyl)oxy) pentadecan-3-yl 1-methyl pyrrolidine-2-carboxylate]
18 | 12.8 | CCCCCCCCCCCCC(CCOC(=O)CCCCC(OCCCCCCCC)OCCCCCCCC)OC(=O)[C@@H]1CCCN1C (stereo partly drawn) [Example 118, (2S)-1-((6,6-bis(octyloxy)hexanoyl)oxy)pentadecan-3-yl 1-methylpyrrolidine-2-carboxylate]
19 | 95.7 | CCCCCCCCCCCCC(CCOC(=O)CCCCC(OCCCCCCCC)OCCCCCCCC)OC(=O)[C@H]1CCCN1 (stereo partly drawn) [Example 119, (2R)-1-((6,6-bis(octyloxy)hexanoyl)oxy)pentadecan-3-yl pyrrolidine-2-carboxylate]
20 | 96.1 | CCCCCCCCCCCCC(CCOC(=O)CCCCC(OCCCCCCCC)OCCCCCCCC)OC(=O)C1(C)CCN(C)C1 (stereo not shown) [Example 120, 1-((6,6-bis(octyloxy)hexanoyl)oxy) pentadecan-3-yl 1,3-dimethylpyrrolidine-3-carboxylate]
21 | 71.2 | CCCCCCCCCCCCC(CCOC(=O)CCCCC(OCCCCCCCC)OCCCCCCCC)OC(=O)CCC1CCN(C)CC1 (stereo not shown) [Example 121, 3-((3-(1-methylpiperidin-4-yl)propanoyl)oxy)pentadecyl 6,6-bis(octyloxy)hexanoate]
22 | 97.5 | CCCCCCCCCCCCC(CCOC(=O)CCCCC(OCCCCCCCC)OCCCCCCCC)OC(=O)C1(C)CCN(C)CC1 (stereo not shown) [Example 122, 1-((6,6-bis(octyloxy)hexanoyl)oxy) pentadecan-3-yl 1,4-dimethylpiperidine-4-carboxylate]
23 | 83.8 | CCCCCCCCCCCCC(CCOC(=O)CCCCC(OCCCCCCCC)OCCCCCCCC)OC(=O)CCCCN(CC)CC (stereo not shown) [Example 123, 3-((5-(diethylamino)pentanoyl)oxy)pentadecyl 6,6-bis(octyloxy)hexanoate]
24 | 98.0 | CCCCCCCCCCCCC(CCOC(=O)CCCCC1OC(CCCCCCC)CC(CCCCCCC)O1)OC(=O)OCCCN(CC)CC (stereo not shown) [Example 124, 3-(((3-(diethylamino)propoxy)carbonyl)oxy)pentadecyl 5-(4,6-diheptyl-1,3-dioxan-2-yl)pentanoate]
25 | 95.1 | CCCCCCCCOC(CCCCC(=O)OCCC(CCCCCCCC)OC(=O)OCCCN(CC)CC)OCCCCCCCC (stereo not shown) [Example 125, 3-(((3-(diethylamino)propoxy)carbonyl)oxy)undecyl 6,6-bis(octyloxy)hexanoate]
26 | 97.4 | CCCCCCCCCCC(CCOC(=O)CCCCC(OCCCCCCCC)OCCCCCCCC)OC(=O)OCCCN(CC)CC (stereo not shown) [Example 126, 3-(((3-(diethylamino)propoxy)carbonyl)oxy)tridecyl 6,6-bis(octyloxy)hexanoate]
27 | 96.7 | CCCCC/C=C\C/C=C\CCCCCCCCC(CCOC(=O)CCCCC(OCCCCCCCC)OCCCCCCCC)OC(=O)OCCCN(CC)CC (stereo not shown) [Example 127, (12Z,15Z)-3-(((3-(diethylamino)propoxy)carbonyl)oxy)henicosa-12,15-dien-1-yl 6,6-bis(octyloxy)hexanoate]

Row | Compound | % encapsulation mRNA Leptin [%]
28 | CCCCCCCCCCCCC(CCOC(=O)CCCCC(OCCCCCCCC)OCCCCCCCC)OC(=O)OCCCCN(CC)CC (stereo not shown) [Example 109, 3-(((4-(diethylamino)butoxy)carbonyl)oxy)pentadecyl 6,6-bis(octyloxy)hexanoate] | 80.6
